Data reported in US12371428B2 (Exelixis, Inc., priority 2019, dated 2025).

Legend:
[1] = molecular target: Human KDR (residues 790-1356) (Homo sapiens (Human), UniProt P35968); test: Human KDR kinase assay, HTRF KinEase (Example B-2); type: biochemical
Outline: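 Human KDR residues 790-1356 (0.1 ng/well) in buffer with 5 mM MgCl2, 1 mM MnCl2, 1 mM DTT, biotinylated peptide substrate, ATP at Km (4.0 μM), 3% DMSO, 10 compound concentrations; 40 min, room temperature. EDTA stop, streptavidin-XL665/Eu-TK antibody HTRF read 665/620 nm; 4-parameter IC50.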

[2] = molecular target: Human MER (residues 528-999) (Homo sapiens (Human), UniProt Q12866); test: Human Mer kinase assay, HTRF KinEase (Example C-2); type: biochemical
Chain of Human MER (residues 528-999) (Q12866 528-999): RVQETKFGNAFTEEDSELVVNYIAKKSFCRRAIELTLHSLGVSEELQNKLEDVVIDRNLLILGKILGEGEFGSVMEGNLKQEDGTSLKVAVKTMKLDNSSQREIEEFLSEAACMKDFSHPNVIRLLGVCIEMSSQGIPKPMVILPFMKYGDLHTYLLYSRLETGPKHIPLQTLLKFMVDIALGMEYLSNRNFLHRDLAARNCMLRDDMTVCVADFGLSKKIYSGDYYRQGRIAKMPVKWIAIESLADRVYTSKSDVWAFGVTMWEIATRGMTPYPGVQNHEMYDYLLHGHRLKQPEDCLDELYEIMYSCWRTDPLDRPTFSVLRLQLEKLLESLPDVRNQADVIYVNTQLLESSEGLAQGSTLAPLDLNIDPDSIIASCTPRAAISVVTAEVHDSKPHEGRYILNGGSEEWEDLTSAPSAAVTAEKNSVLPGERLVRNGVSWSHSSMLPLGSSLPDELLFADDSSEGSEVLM
Outline: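 IC50 values from 10 concentrations via 4-parameter logistic fit of […], with DMSO as 100% and 1 μM reference compound as 0% activity. Reaction: MER kinase domain 528-999, 1 ng/well, 40 μM ATP (Km), biotin peptide, 5 mM MgCl2, 1 mM DTT, 3% DMSO, room temperature 60 min; HTRF streptavidin-XL665/Eu-antibody detection.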

[3] = molecular target: Met (phospho-Met, HGF-stimulated PC-3 prostate cancer cells) (Homo sapiens (Human), UniProt P08581); test: Met autophosphorylation ELISA in PC-3 cells (Example F); type: cell-based; details: cellular activity; Met autophosphorylation ELISA in PC-3 cells; read-out: c-Met IC50
Chain of Met (phospho-Met, HGF-stimulated PC-3 prostate cancer cells) (P08581 25-1390): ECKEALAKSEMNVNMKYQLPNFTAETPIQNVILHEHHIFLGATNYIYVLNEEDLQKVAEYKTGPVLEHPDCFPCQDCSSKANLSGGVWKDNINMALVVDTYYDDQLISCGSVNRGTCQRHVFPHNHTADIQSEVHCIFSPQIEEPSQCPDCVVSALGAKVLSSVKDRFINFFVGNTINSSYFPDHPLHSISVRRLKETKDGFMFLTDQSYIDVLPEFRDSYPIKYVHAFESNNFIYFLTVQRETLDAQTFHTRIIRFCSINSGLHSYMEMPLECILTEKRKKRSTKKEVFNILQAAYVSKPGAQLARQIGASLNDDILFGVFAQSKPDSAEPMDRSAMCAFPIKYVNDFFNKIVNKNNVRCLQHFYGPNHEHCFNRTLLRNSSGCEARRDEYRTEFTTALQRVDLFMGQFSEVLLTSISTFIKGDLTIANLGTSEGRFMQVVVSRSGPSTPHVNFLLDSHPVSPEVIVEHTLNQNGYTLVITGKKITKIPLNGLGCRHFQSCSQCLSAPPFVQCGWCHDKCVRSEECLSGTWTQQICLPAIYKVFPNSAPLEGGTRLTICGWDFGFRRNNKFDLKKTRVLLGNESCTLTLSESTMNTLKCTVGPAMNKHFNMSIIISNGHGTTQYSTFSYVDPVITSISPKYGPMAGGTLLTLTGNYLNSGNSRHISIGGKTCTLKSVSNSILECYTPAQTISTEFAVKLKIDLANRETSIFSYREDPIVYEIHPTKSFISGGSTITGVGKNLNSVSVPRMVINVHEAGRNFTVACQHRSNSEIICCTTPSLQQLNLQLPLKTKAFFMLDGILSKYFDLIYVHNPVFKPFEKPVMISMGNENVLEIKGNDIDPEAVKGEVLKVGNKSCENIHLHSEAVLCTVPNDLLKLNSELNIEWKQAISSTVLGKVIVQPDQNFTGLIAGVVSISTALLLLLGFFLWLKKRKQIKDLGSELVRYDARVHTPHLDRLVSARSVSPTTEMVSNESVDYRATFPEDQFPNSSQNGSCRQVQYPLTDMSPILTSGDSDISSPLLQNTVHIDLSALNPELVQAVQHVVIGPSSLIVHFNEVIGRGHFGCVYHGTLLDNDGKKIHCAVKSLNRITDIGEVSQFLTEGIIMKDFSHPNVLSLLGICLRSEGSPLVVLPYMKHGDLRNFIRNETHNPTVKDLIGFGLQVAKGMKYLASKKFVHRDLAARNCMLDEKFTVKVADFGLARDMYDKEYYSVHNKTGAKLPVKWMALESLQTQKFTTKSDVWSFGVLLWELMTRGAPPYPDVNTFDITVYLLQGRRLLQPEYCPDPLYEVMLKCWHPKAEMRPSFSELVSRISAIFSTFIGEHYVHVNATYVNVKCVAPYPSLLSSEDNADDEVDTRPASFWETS
Outline: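 Sandwich ELISA for phospho-Met (panTyr) in PC-3 lysates. Cells starved 3 h serum-free, compound 1 h (8-pt curve, 0.3% DMSO), HGF 100 ng/mL 10 min. 100% = HGF + DMSO; 0% = HGF + reference inhibitor. IC50 by 4-parameter fit.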

[4] = protocol of Example B-2 (other compounds)
[5] = protocol of Example C-2 (other compounds)

Chain of Human KDR (residues 790-1356) (P35968 790-1356): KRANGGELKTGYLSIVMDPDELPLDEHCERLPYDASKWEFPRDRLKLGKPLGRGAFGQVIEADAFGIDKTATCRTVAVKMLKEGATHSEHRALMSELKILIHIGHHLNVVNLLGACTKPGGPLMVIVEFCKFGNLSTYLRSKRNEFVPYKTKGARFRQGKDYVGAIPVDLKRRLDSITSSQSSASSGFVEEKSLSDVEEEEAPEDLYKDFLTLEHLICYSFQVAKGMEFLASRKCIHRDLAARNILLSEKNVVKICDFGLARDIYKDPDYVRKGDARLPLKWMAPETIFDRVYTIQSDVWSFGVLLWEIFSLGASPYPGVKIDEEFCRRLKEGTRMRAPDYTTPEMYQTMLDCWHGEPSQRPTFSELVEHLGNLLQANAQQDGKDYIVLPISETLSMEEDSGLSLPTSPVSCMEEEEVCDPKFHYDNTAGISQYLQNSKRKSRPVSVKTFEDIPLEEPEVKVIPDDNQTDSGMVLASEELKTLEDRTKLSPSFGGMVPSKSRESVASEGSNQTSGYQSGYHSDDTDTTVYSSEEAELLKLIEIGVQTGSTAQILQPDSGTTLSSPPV

IC50 ([1]; protocol of Example B-2) [nM]	IC50 ([2]; protocol of Example C-2) [nM]	IC50 [3] [nM]	IC50 [1, 4] [nM]	IC50 [2, 5] [nM]	SMILES
100 to 300	< 100	< 100			COc1cc2nccc(Oc3ccc(NC(=O)c4c(C)n(C)c(C)c(-c5ccc(F)cc5)c4=O)cc3F)c2nc1OC [Compound 511, N-[4-[(6,7-dimethoxy-1,5-naphthyridin-4-yl)oxy]-3-fluorophenyl]-5-(4-fluorophenyl)-1,2,6-trimethyl-4-oxopyridine-3-carboxamide]
< 100	< 100	< 100			COc1cc2nccc(Oc3ccc(NC(=O)c4cnc(COC(C)=O)c(-c5ccc(F)cc5)c4O)cc3F)c2nc1OC [Compound 544, [5-[[4-[(6,7-dimethoxy-1,5-naphthyridin-4-yl)oxy]-3-fluorophenyl]carbamoyl]-3-(4-fluorophenyl)-4-hydroxypyridin-2-yl]methyl acetate]
> 300	< 100	< 100			COc1cc2nccc(Oc3ccc(NC(=O)c4c(C)n(C)c(C)c(-c5ccc(F)cc5)c4=O)cc3)c2nc1OC [Compound 523, N-[4-[(6,7-dimethoxy-1,5-naphthyridin-4-yl)oxy]phenyl]-5-(4-fluorophenyl)-1,2,6-trimethyl-4-oxopyridine-3-carboxamide]
100 to 300	< 100	< 100			COc1nc2c(Oc3ccc(NC(=O)c4cnc(C)c(-c5ccc(F)cc5)c4O)cc3F)ccnc2cc1C [Compound 458, N-[3-fluoro-4-[(6-methoxy-7-methyl-1,5-naphthyridin-4-yl)oxy]phenyl]-5-(4-fluorophenyl)-4-hydroxy-6-methylpyridine-3-carboxamide]
< 100	< 100	< 100			C=C(C)c1cnc2c(Oc3ccc(NC(=O)c4c(C)nc(C)c(-c5ccc(F)cc5)c4O)cc3)ccnc2c1 [Compound 455, 5-(4-fluorophenyl)-4-hydroxy-2,6-dimethyl-N-[4-[(7-prop-1-en-2-yl-1,5-naphthyridin-4-yl)oxy]phenyl]pyridine-3-carboxamide]
100 to 300	< 100	< 100			COCc1nc(C)c(-c2ccc(F)cc2)c(O)c1C(=O)Nc1ccc(Oc2ccnc3ccc(OC)nc23)cc1 [Compound 510, 5-(4-fluorophenyl)-4-hydroxy-2-(methoxymethyl)-N-[4-[(6-methoxy-1,5-naphthyridin-4-yl)oxy]phenyl]-6-methylpyridine-3-carboxamide]
> 300	< 100	< 100			COc1cc2nccc(Oc3ccc(NC(=O)c4cn(C)c(C(=O)O)c(-c5ccc(F)cc5)c4=O)cc3F)c2nc1OC [Compound 553, 5-[[4-[(6,7-Dimethoxy-1,5-naphthyridin-4-yl)oxy]-3-fluorophenyl]carbamoyl]-3-(4-fluorophenyl)-1-methyl-4-oxopyridine-2-carboxylic acid]
> 300	< 100	< 100			CCn1cc(C(=O)Nc2ccc(Oc3ccnc4cc(OC)cnc34)c(F)c2)c(=O)c(-c2ccc(F)cc2)c1CF [Compound 559, 1-Ethyl-N-[3-fluoro-4-[(7-methoxy-1,5-naphthyridin-4-yl)oxy]phenyl]-6-(fluoromethyl)-5-(4-fluorophenyl)-4-oxopyridine-3-carboxamide]
100 to 300	< 100	< 100			COc1cc2nccc(Oc3ccc(NC(=O)c4cnc(SC(C)C)n(-c5ccc(F)cc5)c4=O)cc3)c2cc1OC [Compound 539, N-[4-(6,7-dimethoxyquinolin-4-yl)oxyphenyl]-1-(4-fluorophenyl)-6-oxo-2-propan-2-ylsulfanylpyrimidine-5-carboxamide]
> 300	< 100	< 100			CCn1cc(C(=O)Nc2ccc(Oc3ccnc4cc(OC)c(OC)nc34)cc2)c(=O)c(-c2ccc(F)cc2)c1CF [Compound 558, N-[4-[(6,7-Dimethoxy-1,5-naphthyridin-4-yl)oxy]phenyl]-1-ethyl-6-(fluoromethyl)-5-(4-fluorophenyl)-4-oxopyridine-3-carboxamide]
		< 100	< 100	< 100	COc1cc2nccc(Oc3ccc(NC(=O)c4ccc(C)n(-c5ccc(F)cc5)c4=O)cc3F)c2nc1OC [Compound 254, N-[4-[(6,7-Dimethoxy-1,5-naphthyridin-4-yl)oxy]-3-fluorophenyl]-1-(4-fluorophenyl)-6-methyl-2-oxopyridine-3-carboxamide]

The next lines start with the compound.

SMILES	IC50 ([1]; protocol of Example B-2) [nM]	IC50 ([2]; protocol of Example C-2) [nM]	IC50 [3] [nM]	IC50 [1, 4] [nM]	IC50 [2, 5] [nM]
COc1cnc2c(Oc3ccc(NC(=O)c4nn(C)c(C)c(-c5ccc(F)cc5C)c4=O)cc3F)ccnc2c1 [Compound 513, N-[3-fluoro-4-[(7-methoxy-1,5-naphthyridin-4-yl)oxy]phenyl]-5-(4-fluoro-2-methylphenyl)-1,6-dimethyl-4-oxopyridazine-3-carboxamide]	< 100	< 100	< 100		
C=C(C)c1cnc2c(Oc3ccc(NC(=O)c4cnc(C)c(-c5ccc(F)cc5C)c4O)cc3)ccnc2c1 [Compound 448, 5-(4-fluoro-2-methylphenyl)-4-hydroxy-6-methyl-N-[4-[(7-prop-1-en-2-yl-1,5-naphthyridin-4-yl)oxy]phenyl]pyridine-3-carboxamide]	100 to 300	< 100	< 100		
COc1ccc2nccc(Oc3ccc(NC(=O)c4c(C)n(C)cc(-c5ccc(F)cc5C)c4=O)cc3F)c2n1 [Compound 483, N-[3-fluoro-4-[(6-methoxy-1,5-naphthyridin-4-yl)oxy]phenyl]-5-(4-fluoro-2-methylphenyl)-1,2-dimethyl-4-oxopyridine-3-carboxamide]	> 300	100 to 300	< 100		
COCc1nc(C)c(-c2ccc(F)cc2)c(O)c1C(=O)Nc1ccc(Oc2ccnc3ccc(OC)cc23)c(F)c1 [Compound 525, N-[3-fluoro-4-(6-methoxyquinolin-4-yl)oxyphenyl]-5-(4-fluorophenyl)-4-hydroxy-2-(methoxymethyl)-6-methylpyridine-3-carboxamide]	> 300	< 100	< 100		
COc1cc2nccc(Oc3ccc(NC(=O)c4c(C)ncc(-c5ccc(F)cc5C)c4O)cc3F)c2nc1OC [Compound 479, N-[4-[(6,7-dimethoxy-1,5-naphthyridin-4-yl)oxy]-3-fluorophenyl]-5-(4-fluoro-2-methylphenyl)-4-hydroxy-2-methylpyridine-3-carboxamide]	< 100	< 100	< 100		
COc1nc2c(Oc3ccc(NC(=O)c4cnc(C)c(-c5ccc(F)cc5C)c4O)cc3F)ccnc2cc1C [Compound 460, N-[3-fluoro-4-[(6-methoxy-7-methyl-1,5-naphthyridin-4-yl)oxy]phenyl]-5-(4-fluoro-2-methylphenyl)-4-hydroxy-6-methylpyridine-3-carboxamide]	> 300	< 100	< 100		
COc1cc2nccc(Oc3ccc(NC(=O)c4c(C)nc(C)c(-c5ccc(F)cc5CO)c4O)cc3F)c2nc1OC [Compound 518, N-[4-[(6,7-dimethoxy-1,5-naphthyridin-4-yl)oxy]-3-fluorophenyl]-5-[4-fluoro-2-(hydroxymethyl]phenyl]-4-hydroxy-2,6-dimethylpyridine-3-carboxamide]	< 100	< 100	< 100		
C=C(C)c1cnc2c(Oc3ccc(NC(=O)c4cnc(C)c(-c5ccc(F)cc5)c4O)cc3)ccnc2c1 [Compound 454, 5-(4-fluorophenyl)-4-hydroxy-6-methyl-N-[4-[(7-prop-1-en-2-yl-1,5-naphthyridin-4-yl)oxy]phenyl]pyridine-3-carboxamide]	< 100	< 100	< 100		
COCCOc1ccc2nccc(Oc3ccc(NC(=O)c4c(C)nc(C)c(-c5ccc(F)cc5)c4O)cc3F)c2n1 [Compound 349, N-[3-fluoro-4-[[6-(2-methoxyethoxy)-1,5-naphthyridin-4-yl]oxy]phenyl]-5-(4-fluorophenyl)-4-hydroxy-2,6-dimethylpyridine-3-carboxamide]			< 100	< 100	< 100
COc1cnc2c(Oc3ccc(NC(=O)c4cc(C)nn(-c5ccc(F)cc5)c4=O)cc3F)ccnc2c1 [Compound 521, N-[3-fluoro-4-[(7-methoxy-1,5-naphthyridin-4-yl)oxy]phenyl]-2-(4-fluorophenyl)-6-methyl-3-oxopyridazine-4-carboxamide]	> 300	< 100	100 to 300		
COCCOc1cnc2c(Oc3ccc(NC(=O)c4ccc(C)n(-c5ccc(F)cc5)c4=O)cc3F)ccnc2c1 [Compound 552, N-[3-Fluoro-4-[[7-(2-methoxyethoxy)-1,5-naphthyridin-4-yl]oxy]phenyl]-1-(4-fluorophenyl)-6-methyl-2-oxopyridine-3-carboxamide]	< 100	< 100	< 100		
COc1cnc2c(Oc3ccc(NC(=O)c4nn(C)c(C)c(-c5ccc(F)cc5C)c4=O)cc3)ccnc2c1 [Compound 514, 5-(4-fluoro-2-methylphenyl)-N-[4-[(7-methoxy-1,5-naphthyridin-4-yl)oxy]phenyl]-1,6-dimethyl-4-oxopyridazine-3-carboxamide]	< 100	< 100	< 100		
